Results published in patent US20250230165A1, “HETEROCYCLIC COMPOUNDS FOR USE IN THE TREATMENT OF CANCER” (ARTIOS PHARMA LIMITED, priority 2021, published 2025).

Target: T1, Human Polθ polymerase domain (aa1820-2590) (Homo sapiens, UniProt O75417)
T1 construct: Human Polθ polymerase domain (aa1820-2590) was expressed in E. coli; made in house; host or cells: E. coli
T1 sequence (O75417 1820-2590): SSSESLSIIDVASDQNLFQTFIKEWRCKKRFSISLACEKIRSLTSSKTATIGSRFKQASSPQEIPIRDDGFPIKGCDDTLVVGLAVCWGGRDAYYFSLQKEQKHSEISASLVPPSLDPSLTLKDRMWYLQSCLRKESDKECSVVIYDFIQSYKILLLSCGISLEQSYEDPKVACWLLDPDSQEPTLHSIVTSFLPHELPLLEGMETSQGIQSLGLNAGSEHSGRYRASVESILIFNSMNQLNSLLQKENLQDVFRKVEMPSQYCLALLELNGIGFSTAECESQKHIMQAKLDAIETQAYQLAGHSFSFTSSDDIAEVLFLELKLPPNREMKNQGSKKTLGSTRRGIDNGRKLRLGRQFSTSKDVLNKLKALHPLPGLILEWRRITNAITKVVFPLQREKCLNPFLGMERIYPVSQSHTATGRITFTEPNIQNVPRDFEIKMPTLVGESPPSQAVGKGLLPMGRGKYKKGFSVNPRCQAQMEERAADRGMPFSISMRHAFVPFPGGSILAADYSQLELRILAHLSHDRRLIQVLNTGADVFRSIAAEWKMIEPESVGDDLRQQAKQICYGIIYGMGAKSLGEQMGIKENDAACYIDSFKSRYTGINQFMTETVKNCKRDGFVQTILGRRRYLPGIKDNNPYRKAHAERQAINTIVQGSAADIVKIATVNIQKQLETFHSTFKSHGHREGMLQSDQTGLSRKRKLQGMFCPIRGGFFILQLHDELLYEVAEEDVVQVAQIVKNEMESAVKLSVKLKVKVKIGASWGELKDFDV
Experiment: Polθ Polymerase Domain Kinact/KI Assay (PicoGreen)
Type: biochemical
Settings: 0.8 nM Polθ, 100 nM DNA substrate, kobs vs [I] fit for 2-step covalent inhibitor
Method: Polθ Polymerase Domain Kinact/KI Assay
A PicoGreen assay was used to measure the Kinact and KI values of covalent compounds that inhibit the activity of Polθ in vitro.
Human Polθ polymerase domain (aa1820-2590) was expressed in E. coli, purified, aliquoted and stored at −80° C. until required. Polθ substrate was generated from a 1.2:1 mix of DNA II Short to DNA II Long to give a final concentration of […] substrate in annealing buffer (20 mM Tris pH 7.5, 50 mM NaCl). The substrate was heated in […] aliquots to 95° C. in a heating block for 5 min before the heating block switched off, the reaction left to cool to rt and stored at −20° C. until required.
Assay measurements were performed with 1× buffer comprising 25 mM Tris pH 7.5, 12.5 mM NaCl, […], 5% (v/v) glycerol, 0.01% v/v Triton x-100, 0.1 mg/ml BSA, 1 mM DTT. Test compounds were prepared by dilution in 100% DMSO to give a 12 μM intermediate stock of each (100× final top concentration). 100 nL of 23×1:1.5-fold serial dilutions and a DMSO only control were dispensed using the Tecan dispenser into Greiner 384 well black low volume plates (product code 784076). DMSO concentration was maintained at 1% of the final assay volume by back filling with DMSO.
2× Working stock of substrate (200 nM of DNA substrate and […] dNTPs) and enzyme ([…] PolΘ) were made up in assay buffer. 5 μL/well of both enzyme and substrate 2× solutions were dispensed using a Tempest dispenser (Formulatrix) into assay plates that had been pre-dispensed with compound to give a final assay concentration of 100 nM DNA substrate, […] dNTPs and 0.8 nM Polθ. To stop the reaction, […] of a solution containing 25 mM Tris-HCl pH 7.5 and 20 mM EDTA was added at […] (t=0, 2.5, 5, 7.5, 10, 12.5, 15, 20, 25, 30, 35, 40, 45, 50, 55 and 60 min) using the Tempest's time delay function. The plates were covered during the time course to prevent evaporation. After completing the assay, 5 μL of detection reagent (25 mM Tris-HCl pH 7.5 and 2.5% (v/v) PicoGreen) was dispensed into the wells using a Tempest liquid handler (Formulatrix) and plates subsequently read on the CLARIOstar Plus (BMG Labtech) using the default optical settings for fluorescein and the auto gain/focus settings.
All data analysis was carried out using GraphPad Prism V.8 (GraphPad Software Inc, San Diego, CA) Time course data for each inhibitor concentration was fitted to equation 1 to determine kobs values.^1 Any time points where the control (DMSO alone) reaction was no longer linear were excluded from the analysis. 1) Evaluation of Enzyme Inhibitors in Drug Discovery (Ch9), R. A Copeland, Wiley, 2nd Edition 2013.
A secondary plot of kobs vs [I] is used to determine the Kinact and KI parameters (for a 2-step covalent inhibitor) by fitting to equation 2.^1

Row | Structure (SMILES) | Kinact/Kl [M⁻¹ s⁻¹]
1 | C=CC(=O)N1CC2(C1)N[C@H](C)CN(CCN1C[C@H]3CC(=O)N(c4cc(C(F)(F)F)cc(C)n4)[C@@H]3C(=O)N(C)c3cccc(F)c31)C2C (mixture of isomers) [Example 37b, (3aR,11aS)-5-(2-((6R,9R/S)-2-acryloyl-6,9-dimethyl-2,5,8-triazaspiro[3.5]nonan-8-yl)ethyl)-6-fluoro-10-methyl-1-(6-methyl-4-(trifluoromethyl)pyridin-2-yl)-1,3a,4,5,10,11a-hexahydro-2H-benzo[b]pyrrolo[2,3-f][1,4]diazocine-2,11(3H)-dione] | 580000
2 | C=CC(=O)N1CC(=O)N2CCN(CCN3C[C@H]4CC(=O)N(c5cc(C(F)(F)F)cc(C)n5)[C@@H]4C(=O)N(C)c4cccc(F)c43)CC2C1 (mixture of isomers) [Example 62a, (3aR,11aS)-5-(2-((R/S)-8-acryloyl-6-oxooctahydro-2H-pyrazino[1,2-a]pyrazin-2-yl)ethyl)-6-fluoro-10-methyl-1-(6-methyl-4-(trifluoromethyl)pyridin-2-yl)-1,3a,4,5,10,11a-hexahydro-2H-benzo[b]pyrrolo[2,3-f][1,4]diazocine-2,11(3H)-dione] | 3.31e+06
3 | C=CC(=O)N1CC(=O)N2CCN(CCN3C[C@H]4CC(=O)N(c5cc(C(F)(F)F)cc(C)n5)[C@@H]4C(=O)N(C)c4cccc(F)c43)CC2C1 (mixture of isomers) [Example 62b, (3aR,11aS)-5-(2-((S/R)-8-acryloyl-6-oxooctahydro-2H-pyrazino[1,2-a]pyrazin-2-yl)ethyl)-6-fluoro-10-methyl-1-(6-methyl-4-(trifluoromethyl)pyridin-2-yl)-1,3a,4,5,10,11a-hexahydro-2H-benzo[b]pyrrolo[2,3-f][1,4]diazocine-2,11(3H)-dione] | 1.26e+06
4 | Cc1cc(C(F)(F)F)cc(N2C(=O)C[C@@H]3CN(Cc4cn5c(n4)CN(C(=O)CCl)C(C)C5)c4c(Cl)cccc4N(C)C(=O)[C@H]32)n1 (mixture of isomers) [Example 73a, (3aR,11aS)-6-chloro-5-(((R/S)-7-(2-chloroacetyl)-6-methyl-5,6,7,8-tetrahydroimidazo[1,2-a]pyrazin-2-yl)methyl)-10-methyl-1-(6-methyl-4-(trifluoromethyl)pyridin-2-yl)-1,3a,4,5,10,11a-hexahydro-2H-benzo[b]pyrrolo[2,3-f][1,4]diazocine-2,11(3H)-dione] | 39000
5 | C=CC(=O)N1CCC(N2CCC(CN3C[C@H]4CC(=O)N(c5cc(C(F)(F)F)cc(C)n5)[C@@H]4C(=O)N(C)c4cccc(C)c43)CC2)C1 (mixture of isomers) [Example 95a, (3aR,11aS)-5-((1-((S/R)-1-acryloylpyrrolidin-3-yl)piperidin-4-yl)methyl)-6,10-dimethyl-1-(6-methyl-4-(trifluoromethyl)pyridin-2-yl)-1,3a,4,5,10,11a-hexahydro-2H-benzo[b]pyrrolo[2,3-f][1,4]diazocine-2,11(3H)-dione] | 2.63e+06
6 | C=CC(=O)N1CCN2C(=O)CN(CCN3C[C@H]4CC(=O)N(c5cc(C(F)(F)F)cc(C)n5)[C@@H]4C(=O)N(C)c4cccc(F)c43)CC2C1 (mixture of isomers) [Example 116a, (3aR,11aS)-5-(2-((R/S)-8-acryloyl-4-oxooctahydro-2H-pyrazino[1,2-a]pyrazin-2-yl)ethyl)-6-fluoro-10-methyl-1-(6-methyl-4-(trifluoromethyl)pyridin-2-yl)-1,3a,4,5,10,11a-hexahydro-2H-benzo[b]pyrrolo[2,3-f][1,4]diazocine-2,11(3H)-dione] | 1.17e+06
7 | C=CC(=O)N1Cc2cc(CN3C[C@H]4CC(=O)N(c5cc(C(F)(F)F)cc(C)n5)[C@@H]4C(=O)N(C)c4cccc(Cl)c43)cnc2C1COC (mixture of isomers) [Example 236, (3aR,11aS)-5-(((S/R)-6-acryloyl-7-(methoxymethyl)-6,7-dihydro-5H-pyrrolo[3,4-b]pyridin-3-yl)methyl)-6-chloro-10-methyl-1-(6-methyl-4-(trifluoromethyl)pyridin-2-yl)-1,3a,4,5,10,11a-hexahydro-2H-benzo[b]pyrrolo[2,3-f][1,4]diazocine-2,11(3H)-dione] | 1.24e+06

Other lines, results leading:

Row | Kinact/Kl [M⁻¹ s⁻¹] | Structure (SMILES)
8 | 790000 | Cc1cc(C(F)(F)F)cc(N2C(=O)C[C@@H]3CN(Cc4cn5c(n4)CN(C(=O)CCl)C(C)C5)c4c(Cl)cccc4N(C)C(=O)[C@H]32)n1 (mixture of isomers) [Example 73b, (3aR,11aS)-6-chloro-5-(((S/R)-7-(2-chloroacetyl)-6-methyl-5,6,7,8-tetrahydroimidazo[1,2-a]pyrazin-2-yl)methyl)-10-methyl-1-(6-methyl-4-(trifluoromethyl)pyridin-2-yl)-1,3a,4,5,10,11a-hexahydro-2H-benzo[b]pyrrolo[2,3-f][1,4]diazocine-2,11(3H)-dione]
9 | 220000 | C=CC(=O)N1CCN2CCN(C(=O)CN3C[C@H]4CC(=O)N(c5cc(C(F)(F)F)cc(C)n5)[C@@H]4C(=O)N(C)c4cccc(F)c43)CC2C1 (mixture of isomers) [Example 76a, (3aR,11aS)-5-(2-((R/S)-8-acryloyloctahydro-2H-pyrazino[1,2-a]pyrazin-2-yl)-2-oxoethyl)-6-fluoro-10-methyl-1-(6-methyl-4-(trifluoromethyl)pyridin-2-yl)-1,3a,4,5,10,11a-hexahydro-2H-benzo[b]pyrrolo[2,3-f][1,4]diazocine-2,11(3H)-dione]
10 | 940000 | C=CC(=O)N1CCN2CCN(C(=O)CN3C[C@H]4CC(=O)N(c5cc(C(F)(F)F)cc(C)n5)[C@@H]4C(=O)N(C)c4cccc(F)c43)CC2C1 (mixture of isomers) [Example 76b, (3aR,11aS)-5-(2-((S/R)-8-acryloyloctahydro-2H-pyrazino[1,2-a]pyrazin-2-yl)-2-oxoethyl)-6-fluoro-10-methyl-1-(6-methyl-4-(trifluoromethyl)pyridin-2-yl)-1,3a,4,5,10,11a-hexahydro-2H-benzo[b]pyrrolo[2,3-f][1,4]diazocine-2,11(3H)-dione]
11 | 2.5e+06 | C=CC(=O)N1CCC(N2CCC(CN3C[C@H]4CC(=O)N(c5cc(C(F)(F)F)cc(C)n5)[C@@H]4C(=O)N(C)c4cccc(C)c43)CC2)C1 (mixture of isomers) [Example 95b, (3aR,11aS)-5-((1-((R/S)-1-acryloylpyrrolidin-3-yl)piperidin-4-yl)methyl)-6,10-dimethyl-1-(6-methyl-4-(trifluoromethyl)pyridin-2-yl)-1,3a,4,5,10,11a-hexahydro-2H-benzo[b]pyrrolo[2,3-f][1,4]diazocine-2,11(3H)-dione]
